pIC50: −log10 of the molar value.
Legend:
DYRK1B = molecular target: T1, DYRK1B (Homo sapiens, UniProt Q9Y463); assay: DYRK1B kinase assay, Reaction Biology Corporation HotSpot technology (33P ATP); assay type: biochemical; conditions: purified recombinant kinase, 10 µM ATP, 120 min, room temperature
T1 construct: Purified recombinant kinase was incubated with serial 3-fold dilutions of test compounds; purchased Reaction Biology Corporation

DYRK1A = molecular target: T2, DYRK1A (Homo sapiens, UniProt Q13627); assay: DYRK1A kinase assay, Reaction Biology Corporation HotSpot technology (33P ATP); assay type: biochemical; conditions: for pIC50: purified recombinant kinase, 10 µM ATP, 120 min, room temperature
T2 construct: Purified recombinant kinase was incubated with serial 3-fold dilutions of test compounds; purchased Reaction Biology Corporation

[1] = test system: B- and T-ALL cell lines and primary human pediatric ALL samples; parameters: method as in doi:10.1182/blood-2013-06-507368; conditions: cited from earlier work
Panc1 xenograft = conditions: cited from earlier work
[2] = test system: patient-derived ovarian cancer ascites spheroids; conditions: cited from earlier work

T1 sequence (Q9Y463 whole entry): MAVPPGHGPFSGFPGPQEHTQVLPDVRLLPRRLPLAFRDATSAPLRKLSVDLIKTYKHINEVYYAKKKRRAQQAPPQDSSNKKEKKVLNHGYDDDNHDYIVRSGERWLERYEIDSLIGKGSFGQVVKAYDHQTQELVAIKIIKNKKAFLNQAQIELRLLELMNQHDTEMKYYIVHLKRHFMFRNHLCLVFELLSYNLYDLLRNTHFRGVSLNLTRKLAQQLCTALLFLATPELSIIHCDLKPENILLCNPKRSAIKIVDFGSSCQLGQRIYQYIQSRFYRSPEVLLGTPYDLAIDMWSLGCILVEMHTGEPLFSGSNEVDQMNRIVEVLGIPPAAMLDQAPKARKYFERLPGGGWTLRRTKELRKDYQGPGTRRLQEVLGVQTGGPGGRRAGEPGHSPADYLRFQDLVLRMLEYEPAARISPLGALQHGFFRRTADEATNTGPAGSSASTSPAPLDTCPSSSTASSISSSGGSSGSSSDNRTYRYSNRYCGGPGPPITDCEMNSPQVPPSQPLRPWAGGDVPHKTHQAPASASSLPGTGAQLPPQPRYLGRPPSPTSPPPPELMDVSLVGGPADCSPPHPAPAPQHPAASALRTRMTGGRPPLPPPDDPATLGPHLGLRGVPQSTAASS

Compound	pIC50 (DYRK1B)	pIC50 (DYRK1A)	further results
COC(=O)c1nc2ccc3ncnc(Nc4ccc5c(c4)OCO5)c3c2s1 [Compound 13, Methyl 9-(benzo[d][1,3]dioxol-5-ylamino)thiazolo[5,4-f]quinazoline-2-carboxylate]	–	–	Affinity for DYRK1A, result in words (DYRK1A; compared with parent methyl carbimidate / secondary amine analogs): mostly inactive
COC(=N)c1nc2ccc3ncnc(Nc4cc(OC)c(OC)c(OC)c4)c3c2s1 [Compound 7l, Methyl 9-(3,4,5-trimethoxyphenylamino)thiazolo[5,4-f]quinazoline-2-carbimidate]	6.31	6.36	–
COC(=N)c1nc2ccc3ncnc(Nc4ccc(OC)cc4F)c3c2s1 [Compound 8i, Methyl 9-(2-fluoro-4-methoxyphenylamino)thiazolo[5,4-f]quinazoline-2-carbimidate]	–	–	Apoptosis induction in B- and T-ALL cell lines and primary human pediatric ALL samples [1]: dose-dependently induce apoptosis; Apoptosis of primary ALL cells resistant to cytarabine ([1]; cytarabine-resistant primary ALL cells): induced apoptosis
COC(=N)c1nc2ccc3ncnc(Nc4ccc(F)cc4)c3c2s1 [Compound 8e, Methyl 9-(4-fluorophenylamino)thiazolo[5,4-f]quinazoline-2-carbimidate]	8.02	8.22	–
COC(=N)c1nc2ccc3ncnc(Nc4ccc(O)c([N+](=O)[O-])c4)c3c2s1 [Compound 7k, Methyl 9-(4-hydroxy-3-nitrophenylamino)thiazolo[5,4-f]quinazoline-2-carbimidate]	8.25	8.31	–
COC(=N)c1nc2ccc3ncnc(Nc4ccc(OC)cc4)c3c2s1 [Compound 7a, Methyl 9-(4-methoxyphenylamino)thiazolo[5,4-f]quinazoline-2-carbimidate]	7.72	7.88	–
COC(=N)c1nc2ccc3ncnc(Nc4ccc(O)c(F)c4)c3c2s1 [Compound 8j, Methyl 9-(3-fluoro-4-hydroxyphenylamino)thiazolo[5,4-f]quinazoline-2-carbimidate]	7.96	8.06	–
COC(=N)c1nc2ccc3ncnc(Nc4ccc5c(c4)OCCO5)c3c2s1 [Compound 7c, Methyl 9-(2,3-dihydrobenzo[b][1,4]dioxin-6-ylamino)thiazolo[5,4-f]quinazoline-2-carbimidate]	–	8.10	–
COC(=N)c1nc2ccc3ncnc(Nc4ccc(OC)cc4OC)c3c2s1 [Compound 7f, Methyl 9-(2,4-dimethoxyphenylamino)thiazolo[5,4-f]quinazoline-2-carbimidate]	7.95	8.02	–
COC(=N)c1nc2ccc3ncnc(Nc4ccc(Cl)cc4Cl)c3c2s1 [Compound 8c, Methyl 9-(2,4-dichlorophenylamino)thiazolo[5,4-f]quinazoline-2-carbimidate]	9.55	9.66	Toxicity in mice (Panc1 xenograft model) (Panc1 xenograft): without detectable toxicity; In vivo activity in Panc1 xenograft model (Panc1 xenograft; mice): in vivo activities; Activity in patient-derived ovarian cancer ascites spheroids [2]: promising activities
COC(=N)c1nc2ccc3ncnc(Nc4ccc(F)cc4F)c3c2s1 [Compound 8k, Methyl 9-(2,4-difluorophenylamino)thiazolo[5,4-f]quinazoline-2-carbimidate]	8.97	9.03	–
COC(=N)c1nc2ccc3ncnc(Nc4cc(OC)cc(OC)c4)c3c2s1 [Compound 7g, Methyl 9-(3,5-dimethoxyphenylamino)thiazolo[5,4-f]quinazoline-2-carbimidate]	–	6.52	–
COC(=N)c1nc2ccc3ncnc(Nc4ccc(Cl)cc4)c3c2s1 [Compound 8a, Methyl 9-(4-chlorophenylamino)thiazolo[5,4-f]quinazoline-2-carbimidate]	8.32	8.95	–
COC(=N)c1nc2ccc3ncnc(Nc4ccc(OC)c(OC)c4)c3c2s1 [Compound 7e, Methyl 9-(3,4-dimethoxyphenylamino)thiazolo[5,4-f]quinazoline-2-carbimidate]	6.79	–	–
COC(=N)c1nc2ccc3ncnc(Nc4cccc(Cl)c4)c3c2s1 [Compound 8b, Methyl 9-(3-chlorophenylamino)thiazolo[5,4-f]quinazoline-2-carbimidate]	7.73	7.87	–
COC(=N)c1nc2ccc3ncnc(Nc4ccc(Br)cc4F)c3c2s1 [Compound 8f, Methyl 9-(4-bromo-2-fluorophenylamino)thiazolo[5,4-f]quinazoline-2-carbimidate]	8.18	8.44	–
COC(=N)c1nc2ccc3ncnc(Nc4ccc(C(F)(F)F)cc4)c3c2s1 [Compound 8l, Methyl 9-(4-(trifluoromethyl)phenylamino)thiazolo[5,4-f]quinazoline-2-carbimidate]	6.73	7.26	–
COC(=N)c1nc2ccc3ncnc(Nc4ccc5c(c4)OCO5)c3c2s1 [Compound 7b, methyl 9-(benzo[d][1,3]dioxol-5-ylamino)thiazolo[5,4-f]quinazoline-2-carbimidate]	8.38	–	–
COC(=N)c1nc2ccc3ncnc(Nc4ccc(OC)c([N+](=O)[O-])c4)c3c2s1 [Compound 7h, Methyl 9-(4-methoxy-3-nitrophenylamino)thiazolo[5,4-f]quinazoline-2-carbimidate]	–	6.91	–
COC(=N)c1nc2ccc3ncnc(Nc4ccc(Cl)c(Cl)c4)c3c2s1 [Compound 8d, Methyl 9-(3,4-dichlorophenylamino)thiazolo[5,4-f]quinazoline-2-carbimidate]	–	7.18	–

Second part, led by results:

pIC50 (DYRK1B)	pIC50 (DYRK1A)	Compound	further results
7.33	7.39	C#Cc1cccc(Nc2ncnc3ccc4nc(C(=N)OC)sc4c23)c1 [Compound 9d, Methyl 9-(3-ethynylphenylamino)thiazolo[5,4-f]quinazoline-2-carbimidate]	–
7.14	7.37	COC(=N)c1nc2ccc3ncnc(Nc4cccc(C#N)c4)c3c2s1 [Compound 9f, Methyl 9-(3-cyanophenylamino)thiazolo[5,4-f]quinazoline-2-carbimidate]	–
7.19	7.45	COC(=N)c1nc2ccc3ncnc(Nc4ccc(N(C)C)cc4)c3c2s1 [Compound 9h, Methyl 9-(4-(dimethylamino)phenylamino)thiazolo[5,4-f]quinazoline-2-carbimidate]	–
7.43	7.47	N=C(OCc1ccccc1)c1nc2ccc3ncnc(Nc4ccc5c(c4)OCO5)c3c2s1 [Compound 12c, Benzyl 9-(benzo[d][1,3]dioxol-5-ylamino)thiazolo[5,4-f]quinazoline-2-carbimidate]	–
8.11	8.41	COC(=N)c1nc2ccc3ncnc(Nc4ccc(C#N)cc4)c3c2s1 [Compound 9e, Methyl 9-(4-cyanophenylamino)thiazolo[5,4-f]quinazoline-2-carbimidate]	–
8.11	8.22	CCOC(=N)c1nc2ccc3ncnc(Nc4ccc5c(c4)OCO5)c3c2s1 [Compound 12a, Ethyl 9-(benzo[d][1,3]dioxol-5-ylamino)thiazolo[5,4-f]quinazoline-2-carbimidate]	–
8.46	8.74	COC(=N)c1nc2ccc3ncnc(Nc4ccccc4)c3c2s1 [Compound 9a, Methyl 9-(phenylamino)thiazolo[5,4-f]quinazoline-2-carbimidate]	–
7.69	8.66	CC(C)(C)CNc1ncnc2ccc(-c3ccc4c(c3)OCO4)cc12 [NCGC-00189310, reference compound]	–
7.03	7.41	COC(=N)c1nc2ccc3ncnc(Nc4ccc(C(C)(C)C)cc4)c3c2s1 [Compound 9c, Methyl 9-(4-tert-butylphenylamino)thiazolo[5,4-f]quinazoline-2-carbimidate]	–
8.55	9.01	COC(=N)c1nc2ccc3ncnc(Nc4ccc(C)cc4)c3c2s1 [Compound 9b, Methyl 9-(p-tolylamino)thiazolo[5,4-f]quinazoline-2-carbimidate]	–
6.66	6.90	CC(C)OC(=N)c1nc2ccc3ncnc(Nc4ccc5c(c4)OCO5)c3c2s1 [Compound 12b, Isopropyl 9-(benzo[d][1,3]dioxol-5-ylamino)thiazolo[5,4-f]quinazoline-2-carbimidate]	melting point: 224 to 226 °C

Reference: publication PMC6271009, “Design and Synthesis of Thiazolo[5,4-f]quinazolines as DYRK1A Inhibitors, Part II” (Molecules, 2014)
